Results published in US5861480A, “Antimicrobial proteins from aralia and impatiens” (Zeneca Limited, priority 1994, dated 1999).

Key:
Type in all cases: cell-based
[1] = tested on: Botrytis cinerea MUCL 30158; test: Antifungal activity assay (microspectrophotometry), B cinerea; conditions: 48 h
[2] = tested on: A longipes (Alternaria lonaives CBS62083); test: Antifungal activity assay (microspectrophotometry), A longipes; conditions: 48 h
Trichoderma viride K1127 = test: Antifungal activity assay (microspectrophotometry), T viride; conditions: 48 h
[3] = tested on: C sphaerospermum (Cladosnorium sphaerospermum KO791); test: Antifungal activity assay (microspectrophotometry), C sphaerospermum; conditions: 48 h
[4] = tested on: Fusarium culmorum IMI 180420; test: Antifungal activity assay (microspectrophotometry), F culmorum; conditions: 48 h
plant pathogenic fungi = test: Antifungal potency on different plant pathogenic fungi (summary over the panel); conditions: high salt medium (medium B)
[5] = tested on: P digitatum (Penicillium dipitatum (K0879)); test: Antifungal activity assay (microspectrophotometry), P digitatum; conditions: 48 h
[6] = tested on: Septoria tritici (K1097D); test: Antifungal activity assay (microspectrophotometry), S tritici; conditions: 48 h
[7] = tested on: Verticillium albo-atrum K0937; test: Antifungal activity assay (microspectrophotometry), V albo-atrum; conditions: 48 h
[8] = tested on: Fusarium moniliforme FM-9; test: Antifungal activity assay (microspectrophotometry), F moniliforme; conditions: Medium A (1/2 PDB), 48 h
Stenocarpella maydis = test: Antifungal activity assay (microspectrophotometry), S maydis; conditions: Medium A (1/2 PDB), 48 h
[9] = tested on: C graminicola (Colletotrichum Qraminicola CG-17); test: Antifungal activity assay (microspectrophotometry), C graminicola; conditions: Medium A (1/2 PDB), 48 h
[10] = tested on: Verticillium dahliae MUCL 19210; test: Antifungal activity assay (microspectrophotometry), V dahliae; conditions: Medium A (1/2 PDB), 48 h
[11] = tested on: F graminearum (Fusarium craminearum FR-12); conditions: Medium A (1/2 PDB), 48 h
[12] = tested on: Escherichia coli strain HB101; test: Antibacterial activity assay (microspectrophotometry), E coli; conditions: bacterial suspension in soft nutrient agarose, 24 hours at 28° C.
[13] = tested on: Cercospora beticola strain K897; test: Antifungal activity assay (microspectrophotometry), C beticola; conditions: Medium A (1/2 PDB), 48 h
[14] = tested on: B maydis (Bipolaris mavdis HM-10); test: Antifungal activity assay (microspectrophotometry), B maydis; conditions: Medium A (1/2 PDB), 48 h
[15] = tested on: Saccharomyces cerevisiae JRY188; test: Anti-yeast activity assay, S cerevisiae
[16] = tested on: Bacillus megaterium ATCC 13632; test: Antibacterial activity assay (microspectrophotometry), B megaterium; conditions: bacterial suspension in soft nutrient agarose, 24 hours at 28° C.
Candida albicans KA-1 = test: Anti-yeast activity assay, C albicans
[17] = tested on: Sphacelotheca reiliana HS; test: Antifungal activity assay (microspectrophotometry), S reiliana; conditions: Medium A (1/2 PDB), 48 h
[18] = Medium B (1/2 PDB + 1 mM CaCl2 and 50 mM KCl)

Row | Substance | IC50 (growth inhibition) B cinerea ([1]; Medium A (1/2 PDB)) | IC50 (growth inhibition) B cinerea [1, 18] | IC50 (growth inhibition) A longipes ([2]; Medium A (1/2 PDB)) | IC50 (growth inhibition) A longipes [2, 18] | IC50 (growth inhibition) T viride (Trichoderma viride K1127; Medium A (1/2 PDB)) | IC50 (growth inhibition) T viride (Trichoderma viride K1127; [18]) | IC50 (growth inhibition) C sphaerospermum ([3]; Medium A (1/2 PDB)) | IC50 (growth inhibition) C sphaerospermum [3, 18] | IC50 (growth inhibition) F culmorum ([4]; Medium A (1/2 PDB)) | IC50 (growth inhibition) F culmorum [4, 18] | IC50 (growth inhibition) P digitatum ([5]; Medium A (1/2 PDB)) | IC50 (growth inhibition) P digitatum [5, 18] | IC50 (growth inhibition) S tritici ([6]; Medium A (1/2 PDB)) | IC50 (growth inhibition) S tritici [6, 18] | IC50 (growth inhibition) V albo-atrum ([7]; Medium A (1/2 PDB)) | IC50 (growth inhibition) V albo-atrum [7, 18] | IC50 (growth inhibition) C beticola [13] | other results
1 | Ib-AMP4: Impatiens balsamina antimicrobial protein 4, purified from I balsamina seeds; amino acid sequence SEQ ID NO 13 (QWGRRCCGWGPGRRYCRRWC) | 6 µg/mL | 200 µg/mL | 3 µg/mL | 12 µg/mL | 6 µg/mL | 150 µg/mL | 1 µg/mL | 6 µg/mL | 1 µg/mL | 6 µg/mL | 3 µg/mL | 25 µg/mL | 1 µg/mL | 12 µg/mL | 6 µg/mL | 50 µg/mL |  | antifungal activity in high salt medium (in words) (plant pathogenic fungi): fairly strong activity
2 | Ib-AMP1: Impatiens balsamina antimicrobial protein 1, purified from I balsamina seeds; amino acid sequence SEQ ID NO 10 (QWGRRCCGWGPGRRYCVRWC) | 12 µg/mL | > 200 µg/mL | 3 µg/mL | 50 µg/mL | 6 µg/mL | > 200 µg/mL | 1.5 µg/mL | 50 µg/mL | 1.5 µg/mL | 50 µg/mL | 3 µg/mL | 200 µg/mL | 1 µg/mL | 50 µg/mL | 3 µg/mL | > 200 µg/mL | 1.5 µg/mL | IC50 (growth inhibition) F moniliforme [8]: 20 µg/mL; IC50 (growth inhibition) S maydis (Stenocarpella maydis): 5 µg/mL; IC50 (growth inhibition) C graminicola [9]: 2 µg/mL; IC50 (growth inhibition) V dahliae [10]: 1 µg/mL; IC50 (growth inhibition) F graminearum [11]: 3 µg/mL; IC50 (growth inhibition) E coli [12]: > 800 µg/mL; IC50 (growth inhibition) B maydis [14]: 7 µg/mL; IC50 (growth inhibition) S cerevisiae [15]: 20 µg/mL; IC50 (growth inhibition) B megaterium [16]: 10 µg/mL; IC50 (growth inhibition) C albicans (Candida albicans KA-1): 10 µg/mL; effect on the growth of C. albicans (in words) (Candida albicans KA-1): strongly inhibitied; IC50 (growth inhibition) S reiliana [17]: 4 µg/mL
3 | Ib-AMP2: Impatiens balsamina antimicrobial protein 2, purified from I balsamina seeds; amino acid sequence SEQ ID NO 11 (QYGRRCCNWGPGRRYCKRWC) | 25 µg/mL | > 200 µg/mL | 12 µg/mL | > 200 µg/mL | 12 µg/mL | > 200 µg/mL | 6 µg/mL | > 200 µg/mL | 6 µg/mL | > 200 µg/mL | 6 µg/mL | > 200 µg/mL |  |  | 12 µg/mL | > 200 µg/mL | 3 µg/mL | 
4 | Ib-AMP3: Impatiens balsamina antimicrobial protein 3, purified from I balsamina seeds; amino acid sequence SEQ ID NO 12 (QYRHRCCAWGPGRKYCKRWC) | 6 µg/mL | > 200 µg/mL | 6 µg/mL | > 200 µg/mL | 12 µg/mL | > 200 µg/mL | 3 µg/mL | 100 µg/mL | 6 µg/mL | 100 µg/mL | 3 µg/mL | 100 µg/mL |  |  | 6 µg/mL | > 200 µg/mL |  | 
